According to the OPERA property sets (Mansouri et al. 2018):

Row | logP | SMILES
1 | 2.27 | CCOC1(c2ccccc2)OCCN(C)C1C (centres undefined)
2 | 2.09 | C=CCOC1(c2ccccc2)CN(C)CCO1 (centres undefined)
3 | 2.17 | CC(C)COC1(c2ccccc2)CN(C)CCO1 (centres undefined)
4 | 2.13 | CCCOC1(c2ccccc2)CN(C)CCO1 (centres undefined)
5 | 2.23 | CCCCOC1(c2ccccc2)CN(C)CCO1 (centres undefined)
6 | 2.23 | CCOC1(c2ccccc2)CN(C)CC(C)O1 (centres undefined)
7 | 1.87 | CC1C(c2ccccc2)OC(O)(c2ccccc2)CN1C (centres undefined)
8 | 1.87 | C#CCOC1(c2ccccc2)CN(C)CCO1 (centres undefined)
9 | 0.99 | CN1CCOC(O)C1c1ccccc1 (centres undefined)

Row | SMILES | logP
10 | CC1CN(C)CC(O)(c2ccccc2)O1 (centres undefined) | 1.79
11 | CN1CCOC(O)(c2ccc(Br)cc2)C1 (centres undefined) | 1.57
12 | CN1CCOC(O)(c2ccccc2)C1 (centres undefined) | 1.54
13 | CC1N(C)CCOC1(O)c1ccccc1 (centres undefined) | 1.92
14 | CN1CCOC(O)(c2cccc(C(F)(F)F)c2)C1 (centres undefined) | 1.39
